Measured values from US20070225253A1, “Use of a trioxopyrimidine for the treatment and prevention of bronchial inflammatory diseases” (priority 2004, published 2007).

Assay: Pharmacokinetics after intravenous administration to sheep
Type: in vivo
Conditions: I.V. solution, 5 mg/kg
Description: The Compound I/HP-β-CD intravenous solution was obtained by dissolving CompoundI (10 mg/ml) in a solution containing HP-β-CD (200 mM), L-lysine (20 mM) and water for injection. The osmolality (about 325 mOsmol/kg) and the pH (about 8.2) values of this solution are compatible with an intravenous injection. The solution was sterilized by passing through a sterile 0.20 μm cellulose acetate filter under aseptic conditions.
Six healthy sheep (2 males and 4 females) ranging from 45 to 82 kg of body weight were used as experimental animals. During the test, the animals were fed and watered ad libitum.
The experimental study, which was realized following the scheme of Table 3, included a randomized two-way cross-over design for oral administration followed by an intravenous administration. A wash-out period of 3 weeks was allowed between each administration.
For the intravenous dosage form, all six sheep received 5 mg of Compound I/kg of body weight. The solution was administered through the left jugular vein and blood samples were taken from the right jugular vein before and 5, 10, 15, 20, 30, 45 min, 1, 1.5, 2, 3, 4, 5, 6, 8, 10, 12, 24, 28, 32, 48, 72, 96, 120, 144, 168 h after starting the intravenous administration.
All blood samples were centrifuged and the serum were stored at −80° C. until assayed.
A fully automated method was developed for the LC determination of this compound in serum. Sample clean-up was performed by on-line coupling of a pre-column packed with restricted access material (RAM), namely LiChrospher RP-8ADS (alkyl diol silica), to the analytical column by means of the column-switching technique. The ADS sorbents belong to the group of internal surface reversed-phase supports and have been applied successfully for the clean-up of biological samples prior to LC analysis (Yu, Z., and Westerlund, D., Chromatographia 44 (1997) 589-594; Hubert, Ph., et al., S. T. P. Pharma Pratiques 9 (1999) 160-180; Souverain, S., et al., Journal of Chromatography B 801 (2004) 141-156). The operating conditions are described in a previous paper (Chiap, P., et al., Journal of Chromatography B 817 (2005), 109-117). The method was fully validated according to a novel approach based on accuracy profiles taking into account the total measurement error (Hubert, P., et al., Analytica Chimica Acta 391 (1999) 135-148; Hubert, Ph., et al., S. T. P. Pharma Pratiques 13 (2003) 27-64; Hubert, Ph., et al., J Pharm Biomed. Anal. 36 (2004) 579-586.
For the bioanalytical study, the dosing range of the method had to be increased until 50 μg/ml due to high concentrations to be determined. A partial revalidation was performed and good results were obtained with respect to response function, trueness, precision, accuracy and linearity.
For the intravenous administration study, the pharmacokinetic parameters were determined for each animal using a linear two-compartment model with first-order distribution and elimination (Boroujerdi, M., Pharmacokinetics, Principles and Applications. McGrow-Hill Companies, USA, 2002). The areas under the curve values (AUCs0-168) were calculated by linear trapezoidal rule during the sampling period. The AUC extrapolated until infinite values (AUCs0-∞), the total body clearance values (Clt), the biologic half-life (T1/2β) and the overall volume of distribution (Vdt) were calculated using conventional equations associated with compartmental analysis (Boroujerdi, M., Pharmacokinetics, Principles and Applications, McGrow-Hill Companies, USA, 2002).

SMILES: O=C1NC(=O)C(c2ccc(-c3ccccc3)cc2)(N2CCN(c3ccc([N+](=O)[O-])cc3)CC2)C(=O)N1 [Compound I, 5-Biphenyl-4-yl-5-[4-(4-nitro-phenyl)-piperazin-1-yl]pyrimidine-2,4,6-trione]
- distribution phase (sheep): about 30 minutes
- AUC(0-inf) (both sexes, serum, iv, sheep n = 6, mean ± S.D.): 859 ± 212 µg·h/mL
- AUC(0-t) (both sexes, serum, iv, sheep n = 6, mean ± S.D., read-out: AUC0-168 h): 858 ± 212 µg·h/mL
- clearance (both sexes, sheep, serum, iv, sheep n = 6, mean ± S.D., read-out: Clt (total body clearance) (converted)): ~5.97 mL/min
- half-life (both sexes, sheep, serum, iv, sheep n = 6, mean ± S.D., read-out: T1/2β (biologic half-life) (converted)): ~15.5 h
- Vd (both sexes, sheep, serum, iv, sheep n = 6, mean ± S.D., read-out: Vdt (overall volume of distribution)): ~8 L
